Reference: patent US5663207A, “Gem-dichlorocyclopropanes as antitumor agents” (priority 1995, dated 1997)
Entries after “also recorded” stand apart in the source; their conditions may differ. Like-named read-outs stand apart in the source and are kept apart here.

Experiments:
[1] = system: MCF-7 human breast cancer cells; test: In vitro MCF-7 human breast cancer cell growth inhibition assay; type: cell-based; conditions: for inhibition at 1 µM: Homo sapiens
From the text: The biological evaluation of the test compounds consisted of the in vitro rat cytosolic estradiol receptor binding assay, the in vivo immature mouse uterotrophic (estrogenic) and antiuterotrophic (antiestrogenic) assays, and the in vitro suppression of the proliferation of the ER positive MCF-7 human breast cancer cell line. Estradiol (pure agonist), TAM (agonist in mice and antagonist in MCF-7), MER 25 (pure antagonist) and Analog II (antagonist in mice) were used in the assay as standards.
MCF-7 (estrogen-receptor positive) human breast cancer cells (obtained from the Michigan Cancer Foundation, Detroit, Mich.) were grown at 37° C. in 75 cm^2 tissue culture (T-75) flasks, as monolayer cultures in RPMI 1640 phenol red-free media supplemented with 2 mM L-glutamine, gentamicin (50 μg/mL), penicillin (100 units/mL), streptomycin (100 μg/mL ) and calf serum (5%). Cultures were grown in an incubator 37° C. in a humid 5% CO2 atmosphere, and fed on alternate days. Expotential growth was maintained by subculturing at eight day intervals when the cells per T-75 flask reached 10 to 12×10^6 cells. Cells were trypsinized, washed and plated in multiwell plates at a density of 5×10^4 cells/well in 3 mL of RPMI 1640 media. The cells were allowed to attach and were in logarithmic growth when the test compounds were added. The test compounds (10^-6 M) in the presence or absence of a 10-fold lower dose of estradiol were dissolved in a polyethylene glycol 400: ethanol (55:45) mixture and added in the culture media in duplicate. Control samples received vehicle alone at the same concentration used in the treatment groups. The final concentration of the vehicle mixture was 0.1% of the incubation media. Cell growth was measured on alternate days using the hemocytometric trypan blue exclusion method. Percent inhibition of MCF-7 cells was calculated as the ratio of the control mean cell count per well minus the treatment group mean cell count per well to the control mean cell count per well, multiplied by 100.
^b % MCF7 inhibition was calculated as follows: […]
Thirteen compounds, Analog II, TAM, and MER 25 were tested for their antiproliferative activity in the MCF-7 human breast cancer cell line (Table II). Compounds were tested at a concentration of 10^-6 M in the presence or absence of 10^-7 M estradiol to assess their ability to alter the growth of the calls (Table II). The 10^-6 M concentration was selected since it was reported that the inhibition of the MCF-7 cells by antiestrogens and TAM occurred either at that concentration or less, and were both selective and estrogen receptor specific. Concentrations of antiestrogens greater than 5×10^-6 M were reported to have nonspecific cytotoxic effects (BRIAND, P. AND […], A. E. (1984), "Effect of estrogen and antiestrogen on the human breast cancer cell line MCF-7 adapted to growth at low serum concentration", Cancer Research, 44, 1114).

[2] = Stability observed during isolation and storage; type: physicochemical; conditions: on concentration, drying or storage
Procedure: The structures of all compounds were supported by their proton NMR spectra, which were measured on either a Varian EM-360A or XL-300 spectrometer. The spectra are reported in parts per million in CDCl3 unless otherwise noted, with tetramethysilane as the internal standard. Infrared spectra were obtained from KBr pellets on a Beckman Acculab 1 spectrometer and were consistent with the assigned structures. Silica gel (for example, obtained commercially from J. T. Baker) of approximately 40 μm diameter was used for flash chromatography (STILL, W. C., KAHN, M. AND MITRA, A. (1978), "Rapid chromatographic technique for preparative separations with moderate resolutions", Journal of Organic Chemistry, 43, 2923), which was performed at 5-10 psi. Petroleum ether was of bp 30°-60° C. When necessary, solvents or reagents were dried by appropriate methods. Evaporations were carried out in vacuo on a rotary evaporator or under a stream of dry N2. Melting points were taken on a Thomas-Hoover capillary melting point apparatus and are uncorrected. Reaction progress and product purity were monitored by analytical TLC on strips of Eastman Kodak plastic-backed SiO2 60 F254 or Al2 O3 F254. Developed strips were viewed under light of 254 and 365 nm wavelengths. Elemental analyses were done by Midwest Microlab Ltd., Indianapolis, IN. Acceptable elemental results are denoted in Table I by the formula, followed by the elements analyzed. Melting points and yields of all compounds were based on pure samples unless otherwise noted, are listed in Table I. Para-Bromoanisole, p-methoxydeoxybenzoin, anisole, p-methoxybenzaldehyde, and 2,3-bis-(p-methoxyphenyl)-acrylic acid and trans-p-methoxystilbene (the olefin), were purchased from Aldrich & Co. The cyclopropanes 1,1-dichloro-cis-2-(p-hydroxyphenyl)-3-phenylcyclopropane (9), and its trans isomer 1,1-dichloro-trans-2-(p-Hydroxyphenyl)-3phenylcyclopropane (17) were prepared from Compounds 8 & 16, respectively. […] Tamoxifen was obtained from Stuart Pharmaceuticals, Division of ICI Americas, Inc., Wilmington, Del. 19897. MER 25 was obtained from the Merrell Dow Research Institute, Division of Merrell Dow Pharmaceuticals, Inc., Cincinnati, Ohio. Protein Assay Reagent, Pierce Chemical Co., Rockford, Ill. 61105. Diethylstilbestrol, β-estradiol, EDTA, DL-dithiothreitol, Sodium molybdate, and Tris (hydroxymethyl) aminomethane hydrochloride were purchased from Sigma Chemical Co., St. Louis, Mo. 63178.
Essentially, the intermediate olefin acids (Compounds 6 & 12) were obtained from a mixed Perkin and Knoevenagel-type condensation involving the reaction of p-methoxyaldehyde (Compound 4) with phenylacetic acid (Compound 5), or p-methoxyphenylacetic acid (Compound 11) in triethylamine and acetic anhydride. To prepare cis-p-methoxystilbene (Compound 7) or bis-(p-methoxy)-cis-stilbene (Compound 13). Decarboxylation of 6 & 12 with quinoline (prevents isomerizations; KLEIN, J. AND MEYER, A. Y. (1964), "The decarboxylation of α-cyano-and α-carboxycinnamic acids", Journal of Organic Chemistry, 29, 1038), and copper chromite at elevated temperature provided 7 & 13. High temperature during distillation caused 8% isomerization to the trans-isomer (15), which was isolated by column chromatography. Dichlorocarbene generation used the catalytic phase transfer method (21, 37) (used extensively in our laboratory) of 50% aqueous solution of NaOH, CHCl3 and benzyltriethylammonium chloride (TEBA) as the anion transfer agent. […]

CC(=O)Oc1ccc([C@H]2[C@@H](c3ccccc3)C2(Cl)Cl)cc1 (relative stereo) [Compound 10, 1,1-Dichloro-cis-2-(p-acetoxyphenyl)-3-phenylcyclopropane]
effect on MCF-7 cell growth (in words) ([1]; 10^-6 M): inhibited cell growth
inhibition at 1 µM ([1]; MCF7, 10^-6 M, versus control mean cell count, read-out: MCF-7 Inhibition): 32%
stability (in words) [2]: stable light-yellow oil at 0 °C

Oc1ccc(C2(c3ccc(O)cc3)C(Cl)(Cl)C23CCCCC3)cc1 [Compound 30, 1,1-Dichloro-2,2-bis-(p-hydroxyphenyl)-spiro[2.5]octane]
effect on MCF-7 cell growth (in words) ([1]; 10^-6 M): active inhibitors of cell growth
reversal of growth inhibition by estradiol (in words) ([1]; 10^-7 M estradiol): reversed by 10^-7 M estradiol
inhibition at 1 µM ([1]; MCF7, read-out: MCF-7 Inhibition): 21.3%
effect on estradiol-induced cell growth (in words) ([1]; with 10^-7 M estradiol): enhanced estradiol-induced cell growth above the control
stability (in words) [2]: gradually turned to light-orange; also recorded: underwent a gradual color change
